Patent publication US12522587B2, “Cancer treatments targeting cancer stem cells” (Remedy Plan, Inc., priority 2018, dated 2026)

Test system: AGS human gastric adenocarcinoma cells
Assay: Human microarray study (Affymetrix Clariom S) of treated AGS cells
Format: cell-based
Conditions: two days, positive = downregulated
Procedure: AGS human gastric adenocarcinoma cells were treated with compound I-1, or DMSO alone (as a negative control) for two days. After two days, RNA was isolated from compound I-1 treated cells and DMSO treated cells, in duplicate, and subjected to microarray analysis using AFFYMETRIX CLARIOM S microarrays. Data were represented as fold change relative to the compound I-1 treated cells, negative values represented genes that were on higher in compound I-1 treated cells than in DMSO treated cells, and positive values represented genes that were on higher in DMSO treated cells than in compound I-1 treated cells. Values were averaged for the duplicate samples. We included data for the genes whose expression was altered by more than 3 fold, either up or down, in response to compound I-1.
Negative numbers indicate fold upregulation upon drug treatment. Positive numbers indicate fold downregulation upon drug treatment. […] In addition, Chac1, PCK2, and SLC7A11 were all shown to have a tumor promoting activity and to be associated with the more dangerous and lethal forms of cancer, and these three genes were the three most strongly repressed genes measured in this analysis. There were other examples in the data that supported this model, but the overall model was that compound I-1 increased the expression of tumor suppressor genes, and decreased the expression of tumor promoting genes.

CCC(=O)N1CCc2cc(-c3ccc(C(=O)NCc4cccnc4)cc3)ccc21 [Compound I-1]
Fold Change CEBPG: 3.29 fold | Fold Change CHAC1: 43.64 fold | Fold Change CRNDE: 7.6 fold | Fold Change CTH: 12.23 fold | Fold Change CTNS: 3.16 fold | Fold Change CYP1A1: 12.34 fold | Fold Change DCLRE1A: 3.36 fold | Fold Change DDIT3: 3.76 fold | Fold Change DDIT4: 14.73 fold | Fold Change DEPTOR: 3.05 fold | Fold Change DMBT1: 3.25 fold | Fold Change EEF2KMT: 4.01 fold | Fold Change EFHC1: 3.67 fold | Fold Change EIF4EBP1: 6.66 fold | Fold Change ERICH2: 3.35 fold | Fold Change EXOSC8: 3.68 fold | Fold Change FAIM: 3.09 fold | Fold Change FAM27E3: 4.39 fold | Fold Change FAM86B1: 3.53 fold | Fold Change FAM86C1: 3.18 fold | Fold Change FAM111B: 3.46 fold | Fold Change FAM216A: 3 fold | Fold Change FIGNL1: 4.84 fold | Fold Change FILIP1L: 3.7 fold | Fold Change FUT1: 3.48 fold | Fold Change GARS: 3.24 fold | Fold Change GEN1: 3.39 fold | Fold Change GPX8: 3.7 fold | Fold Change GRB10: 3.1 fold | Fold Change GSTM2: 3.25 fold | Fold Change GSTM4: 4.02 fold | Fold Change GTPBP2: 4.3 fold | Fold Change H1F0: 3.59 fold | Fold Change HAX1: 3.68 fold | Fold Change HIST1H1B: 4.91 fold | Fold Change HIST1H1C: 4.26 fold | Fold Change HIST1H1D: 5.18 fold | Fold Change HIST1H1E: 3.75 fold | Fold Change HIST1H2AB: 6.88 fold | Fold Change HIST1H2AE: 5.92 fold | Fold Change HIST1H2AG: 5.06 fold | Fold Change HIST1H2AI: 5.81 fold | Fold Change HIST1H2AJ: 3.77 fold | Fold Change HIST1H2AK: 3.52 fold | Fold Change HIST1H2AL; HIST1H2BN: 3.72 fold | Fold Change HIST1H2AM; HIST1H3J: 6.91 fold | Fold Change HIST1H2BB: 3.09 fold | Fold Change HIST1H2BE: 3.05 fold | Fold Change HIST1H2BF: 3.75 fold | Fold Change HIST1H2BG: 3.8 fold | Fold Change HIST1H2BH: 3.09 fold | Fold Change HIST1H2BI: 8.02 fold | Fold Change HIST1H2BJ: 4.83 fold | Fold Change HIST1H2BK: 3.06 fold | Fold Change HIST1H2BL: 5.51 fold | Fold Change HIST1H2BM: 12.33 fold | Fold Change HIST1H3A: 3.04 fold | Fold Change HIST1H3B: 5.94 fold | Fold Change HIST1H3D; HIST1H2AD: 4.82 fold | Fold Change HIST1H3F: 6.21 fold | Fold Change HIST1H3G: 9.34 fold | Fold Change HIST1H3H: 7.63 fold | Fold Change HIST1H3I: 4.49 fold | Fold Change HIST1H4A: 5.75 fold | Fold Change HIST1H4D: 3.02 fold | Fold Change HIST1H4H: 3.25 fold | Fold Change HIST2H2AA3; HIST2H2AA4: 3.2 fold | Fold Change HIST2H2AA4; HIST2H2AA3: 3.08 fold | Fold Change HIST2H3A: 10.31 fold | Fold Change HIST2H3A; HIST2H3C: 8.95 fold | Fold Change HIST2H3D: 4.21 fold | Fold Change HIST2H4A; HIST2H4B: 3.94 fold | Fold Change HIST2H4B; HIST2H4A: 3.79 fold | Fold Change HMMR: 4.62 fold | Fold Change HOXB9: 5.66 fold | Fold Change IARS: 3.29 fold | Fold Change IFRD1: 6.11 fold | Fold Change IFT88: 4.63 fold | Fold Change IGF2BP3: 5.34 fold | Fold Change IL20RB: 4.75 fold | Fold Change INHBE: 12.74 fold | Fold Change IRAK1BP1: 3.59 fold | Fold Change IZUMO1: 4.5 fold | Fold Change JDP2: 4.94 fold | Fold Change KIF15: 3.66 fold | Fold Change KIF21B: 3.52 fold | Fold Change KLHL5: 3.17 fold | Fold Change LGALS4: 3.06 fold | Fold Change LMO4: 3.1 fold | Fold Change LRRC8D: 3.82 fold | Fold Change LYRM7: 3.58 fold | Fold Change MARS; MIR6758: 3.79 fold | Fold Change MAT2A: 5.04 fold | Fold Change MB21D2: 4.66 fold | Fold Change METTL4: 4.39 fold | Fold Change MINA: 3.05 fold | Fold Change MIR17HG; MIR17; MIR18A; MIR19A; MIR19B1; MIR20A; MIR92A1: 3.18 fold | Fold Change MOCOS: 5.87 fold | Fold Change MTHFD2: 3.26 fold | Fold Change NCOA5: 3 fold | Fold Change NCOA7: 3.2 fold | Fold Change NEDD4: 3.11 fold | Fold Change NOX1: 6.01 fold | Fold Change NPIPA2: 3.06 fold | Fold Change NPIPA3: 3.17 fold | Fold Change NPIPA5: 3.15 fold | Fold Change NPIPA7; NPIPA8; PKD1P1: 3.01 fold | Fold Change NPIPA8: 3.2 fold | Fold Change NUPR1: 5.76 fold | Fold Change ORAOV1: 3.3 fold | Fold Change PCK2: 17.83 fold | Fold Change PDK1: 3.5 fold | Fold Change PHLDB2; PLCXD2: 3.75 fold | Fold Change PKD1; MIR6511B2; MIR6511B1: 3.36 fold | Fold Change PKD2: 3.76 fold | Fold Change PKDCC: 3.89 fold | Fold Change PRIM1: 4.42 fold | Fold Change PSAT1: 7.92 fold | Fold Change PSPH: 4.23 fold | Fold Change PTER: 3.93 fold | Fold Change PTPRB: 3.96 fold | Fold Change PYROXD1: 3.74 fold | Fold Change RASGRP3: 3.19 fold | Fold Change RASIP1: 3.21 fold | Fold Change RBBP9: 3.05 fold | Fold Change RBCK1: 4.36 fold | Fold Change REG4: 3.04 fold | Fold Change RFXAP: 4.14 fold | Fold Change RNF170; MIR4469: 3.95 fold | Fold Change S100P: 4.36 fold | Fold Change SERPINB8: 6.07 fold | Fold Change SETMAR: 3.32 fold | Fold Change SH2B3: 4.5 fold | Fold Change SHMT2: 3.22 fold | Fold Change SLC1A4: 8.26 fold | Fold Change SLC1A5: 4.04 fold | Fold Change SLC6A9: 7.78 fold | Fold Change SLC7A1: 3.19 fold | Fold Change SLC7A5: 7.31 fold | Fold Change SLC7A11: 15.27 fold | Fold Change SLC16A4: 3.65 fold | Fold Change SLC38A1: 3.03 fold | Fold Change SLC43A1: 8.25 fold | Fold Change SLC46A1: 5.39 fold | Fold Change SLCO1B3: 3.61 fold | Fold Change ST6GALNAC3: 4.78 fold | Fold Change STAMBPL1: 3 fold | Fold Change STPG1: 3.97 fold | Fold Change SYNPO: 3.2 fold | Fold Change TADA2A: 3.37 fold | Fold Change TFF1: 11.81 fold | Fold Change THOC1: 3.18 fold | Fold Change TMEM218: 3.29 fold | Fold Change TNFRSF9: 8.19 fold | Fold Change TSEN15: 3.5 fold | Fold Change TUBE1: 5.83 fold | Fold Change UNC93A: 3.31 fold | Fold Change WARS: 4.85 fold | Fold Change WBP4: 3.63 fold | Fold Change XPA: 3.25 fold | Fold Change XRCC2: 3.5 fold | Fold Change YAE1D1: 3.02 fold | Fold Change ZBED8: 4.58 fold | Fold Change ZC3H8: 4.04 fold | Fold Change ZCCHC8: 3.9 fold | Fold Change ZFAND1: 3.29 fold | Fold Change ZNF302: 4.83 fold | Fold Change ZNF518A: 4.12 fold | Fold Change ZNF780B (first ZNF780B entry): 3.19 fold | Fold Change ZNF780B (second ZNF780B entry): 3.19 fold
